Here are results for one compound from BindingDB's records for patent US9868748 (Vitae Pharmaceuticals, 2018).

The target in the experiment is T1, Nuclear receptor ROR-gamma (Homo sapiens, UniProt P51449).
T1 sequence (P51449 whole entry): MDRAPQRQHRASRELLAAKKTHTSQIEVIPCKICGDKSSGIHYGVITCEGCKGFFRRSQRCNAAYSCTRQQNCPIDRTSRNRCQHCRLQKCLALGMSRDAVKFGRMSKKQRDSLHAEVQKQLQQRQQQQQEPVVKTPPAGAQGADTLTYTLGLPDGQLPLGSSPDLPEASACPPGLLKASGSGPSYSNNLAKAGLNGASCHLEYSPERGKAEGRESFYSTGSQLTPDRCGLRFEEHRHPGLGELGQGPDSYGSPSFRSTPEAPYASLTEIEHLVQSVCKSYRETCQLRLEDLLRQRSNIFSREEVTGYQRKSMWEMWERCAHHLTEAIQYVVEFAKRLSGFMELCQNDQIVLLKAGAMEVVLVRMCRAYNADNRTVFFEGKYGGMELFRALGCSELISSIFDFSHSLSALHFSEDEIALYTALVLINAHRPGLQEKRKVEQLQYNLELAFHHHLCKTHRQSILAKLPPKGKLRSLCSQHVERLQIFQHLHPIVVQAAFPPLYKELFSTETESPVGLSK
Nature of the experiment: Binding Assay. On the procedure:
Compounds of the present invention were tested for ability to bind to RORγ in a cell-free competition assay with commercially available radio-ligand (RL), 25-hydroxy [26,27-3H] cholesterol (PerkinElmer, Cat. # NET674250UC), for a ligand binding site on a recombinant RORγ Ligand Binding Domain (LBD) protein expressed as a 6×His-Glutathione-S-Transferase (GST) fusion ( 6×His disclosed as SEQ ID NO: 2). The assay was performed in 96-well SPA plates (PerkinElmer, Cat. #1450-401) in 50 mM HEPES buffer, pH 7.4, containing 150 mM NaCl, 5 mM MgCl2, 10% (v/v) glycerol, 2 mM CHAPS, 0.5 mM β-octylglucopyranoside and 5 mM DTT. Tested compounds were dissolved in DMSO, and semi-log (3.162×) serial dilutions of the compounds were prepared in the same solvent. Two μL of the DMSO solutions were mixed with 28 μL of 8.6 nM 25-hydroxy [26,27-3H] cholesterol and 50 μL of 24 nM RORγ LBD. […] SPA signal for tritium beta radiation was registered on PerkinElmer Microbeta plate reader. Percent inhibition values were calculated based on the high signal obtained with DMSO control and the low signal observed with 10 μM standard RORγ inverse agonist T0901317 (SigmaAldrich, Cat. # T2320). The percent inhibition vs. concentration data were fit into a four-parameter model, and […] values were calculated from the fit as the concentrations corresponding to the inflection points on the dose-response curves.

By Ki is commonly meant a dissociation constant, usually derived from enzyme kinetics or from competition with a known ligand. A higher Ki goes with lower affinity. In the case of `CCS(=O)(=O)c1ccc(CC(=O)Nc2nc3c(s2)CN(CC2CC[C@@H](C(F)(F)F)N(C)C2)[C@H]3C(C)C)cc1` (stereo partly specified) [US9868748, I-A30], the Ki was less than 0.1 µM.
